This is an account of results in patent publication US20070141028A1, “Cancer gene therapeutic drug” (priority 2003, published 2007).

Common to all, as to type: cell-based
For test [1], the system named is ovarian cancer cells HEY. Nature of the test: Influence of Fe and ALA on the proliferation inhibitory effect of adenovirus AdE3-1A1.3B (virus rate at IC50). To be noted: IC50 after five days. The protocol:
Ovarian cancer cells HEY were cultured in 12-well plate at a rate of 10,000 cells/well and FeSO4 was added at a concentration of 50 μg/ml, 5 μg/ml, 0.5 μg/ml or 0 μg/ml on the following day and the cytolysis type adenovirus AdE3-1A1.3B was added to all wells. The proliferation inhibitory effect of the adenovirus was evaluated by IC50 after five days.
Next, the ovarian cancer cell line HEY was cultured in a 12-well plate at a rate of 10,000 cells/well and 5-aminolevulinic acid (ALA) was added at a concentration of 50 μg/ml, 5 μg/ml, 0.5 μg/ml or 0 μg/ml on the following day and the cytolysis type adenovirus AdE3-1A1.3B was added to all wells. The proliferation inhibitory effect of the adenovirus was evaluated by IC50 after five days.
Furthermore, the ovarian cancer cell line HEY was cultured in a 12-well plate at a rate of 10,000 cells/well and FeSO4 was added at a concentration of 50 μg/ml, 5 μg/ml, 0.5 μg/ml or 0 μg/ml on the following day. In addition, the cytolysis type adenovirus AdE3-1A1.3B and 50 μg/ml of 5-aminolevulinic acid (ALA) were added to each well. Only the adenovirus was added to a control. The proliferation inhibitory effect of the adenovirus was evaluated by IC50 after five days.

Test [2] deals with cancer cells. Description: β-gal assay of adenovirus infectivity. From the text: (§1) That is, ALA and Fe can enhance antitumor effect, because they can increase the infectivity of adenovirus to cancer cells and the amount of virus production within the cells.
In test [3] the test system is cancer cells. Nature of the test: PFU assay of adenovirus production.
Description: as §1

On to `NCC(=O)CCC(=O)O` [ALA, 5-aminolevulinic acid], for which, in test [1] (50 μg/ml ALA + AdE3-1A1.3B), the “proliferation inhibitory effect relative to only adenovirus administration” value was “about 100 fold”. In addition, the infectivity of adenovirus result in test [2] is on record as “increased infectivity of adenovirus”. In addition, in test [3], the “amount of adenovirus production” value is “increased amount of adenovirus production”.

On to ferrous sulfate [FeSO4], for which the “proliferation inhibitory effect relative to only adenovirus administration” value in test [1] (0.5 μg/ml FeSO4 + 50 μg/ml ALA + AdE3-1A1.3B) is “about 200 fold”; in test [1] (5 μg/ml FeSO4 + 50 μg/ml ALA + AdE3-1A1.3B), “about 700 fold”; in test [1] (5 μg/ml FeSO4 + AdE3-1A1.3B), “about 8 fold”; in test [1] (50 μg/ml FeSO4 + 50 μg/ml ALA + AdE3-1A1.3B), “about 1,000 fold”; in test [1] (50 μg/ml FeSO4 + AdE3-1A1.3B), “about 20 fold”.
